Measurements: patent US20070286823A1, “COMPOSITIONS HAVING ANTI-DENTAL CARIES FUNCTION” (Ezaki Glico Co., Ltd., priority 2001, published 2007)

How the values were obtained:
[1] = remineralization test system using bovine tooth pieces (Example 3)
Description: The remineralization effect of a buffering agent may be examined by a known method, such as a remineralization test system using bovine tooth sections which is described in Inaba. D et al., Eur. J. Sci. 105:74-80, 1997; Inaba. D et al., J. Dent. Health. 47:67-74, 1997; and Iijima. Y et al., Dental Caries Research. 33:206-213, 1999.
This experiment was conducted basically in accordance with Inaba. D et al., Eur. J. Sci. 105:74-80, 1997; Inaba. D et al., J. Dent. Helth. 47:67-74, 1997; and Iijima. Y et al., Caries Research. 33:206-213, 1999.
Tooth pieces used in the experiment were prepared as follows: cubic bovine tooth pieces 3 mm per side were placed so that the enamel surfaces thereof are up. The pieces were covered with composite resin except for the enamel surfaces. The enamel was treated with wet abrasives and paper. Demineralization was conducted as follows: the tooth pieces were immersed in 1% lactate gel (pH 5.0) containing 6% carboxymethylcellulose gel at 37° C. for 3 weeks. Remineralization was conducted as follows: the tooth pieces subjected to demineralization were immersed in 20 mM 2-[4-(2-hydroxyethyl)]-1-piperidinylethane sulfonate (HEPES) buffer (pH 7.0) containing 1.5 mM CaCl2 and 0.9 mM KH2PO4 at 37° C. for one week.
After each treatment, a 200 μm-thick section was prepared from each treated tooth piece, and the mineral concentration distribution thereof was analyzed from the microradiographic images (not shown). […]
After each treatment, the calcium and phosphorus concentrations of the post-remineralization solution were also analyzed. The solution was centrifuged at 10,000 g for two minutes, and the supernatant was analyzed. The phosphorus concentration was determined by molybdic acid method (“Shin-ban Bunseki Kagaku Jikken [New Edition Analyical Chemistry Experiment] (1st ed.), pp. 313-314, published by Kagaku Dojin K. K.), and the calcium concentration was determined by OCPC method (manufactured by Wako Pure Chemicals: measured by a “calcium C test Wako” kit).

[2] = prior art; cited from earlier work
[3] = simple remineralization test system (hydroxyapatite, soluble calcium by OCPC method); conditions: for remineralization effect (FIG. 12): final concentration of 0.1%
Description: These conditions for easy remineralization are simplified as follows: in a system including hydroxyapatite, calcium and phosphorus are supplied for crystallization and soluble calcium is reduced; and in a system including no hydroxyapatite, phosphorus and calcium are not deposited and the high solubility thereof is maintained. Therefore, the magnitudes of the solubility of calcium in the two systems were compared to examine the remineralization effect. These simple test systems will be described below. […] For this method, there are the following constraints: a long time required for evaluation; a high-level experimental technique required; etc. Therefore, there is a demand for a simple evaluation system capable of quickly capturing changes in dentin mineral concentrations. Remineralization in an early dental caries lesion in the enamel of teeth is considered to develop via the following two processes:
This method comprises the steps of: (A) precipitating calcium in a solution containing phosphorus, calcium, and tooth components in the presence of the sample; (B) measuring a calcium concentration in the solution or the amount of the precipitated calcium after the precipitation; (C) precipitating calcium in the solution in the absence of the sample; (D) measuring a calcium concentration in the solution or the amount of the precipitated calcium after the precipitation; and (E) comparing calcium concentrations or the amounts of the precipitated calcium in steps (B) and (D). In a preferred embodiment, the above-described solution may contain hydroxyapatite, a buffer, KH2PO4 and CaCl2. The “tooth component” to be contained in the above-described solution is any material that precipitates phosphorus and calcium to produce hydroxyapatite due to remineralization. Use of hydroxyapatite is preferable. Alternatively, teeth of mammals such as a bovine, and sections or fractions thereof may be used. When the solution for calcium precipitation is prepared, the sequence of addition of the above-described phosphorus, calcium, and the other tooth components is not limited. Preferably, first the sample, then, phosphorus, calcium chloride solution, and the tooth component suspension or deionized water are added in this order to prepare the solution. The pH of the solution is preferably adjusted after the addition of KH2PO4. Calcium precipitation typically occurs by incubation at room temperature for ten and several hours to several days (preferably 10 hours to 7 days, more preferably 18 hours to 42 hours). The calcium solubility of the solution can be measured by any procedure known to those skilled in the art. The calcium solubility of the solution may be measured by OCPC method (using calcium C test Wako manufactured by Wako Pure Chemicals). Alternatively, the amount of precipitated calcium in the solution can be measured. The amount of precipitated calcium in the solution may be measured by any procedure known to those skilled in the art. The calcium solubility of the solution may be measured by any procedure known to those skilled in the art. Examples of such a method include the ICP method (Inductive Coupled Plasma method), atomic absorption analysis and an ion electrode method.
In order to examine the remineralization phenomenon in a more simple manner, conditions under which remineralization occurs more easily were simplified. In a system including hydroxyapatite, calcium and phosphorus are supplied for crystallization and soluble calcium is reduced. In contrast, in a system including no hydroxyapatite, calcium and phosphorus are not precipitated so that the solubility thereof is held at a high level. Based on these facts, the following test system was designed.

[4] = as above; conditions: 37° C., 8 days
S. mutans strain 8148 = assay: effect on fermentation of sucrose (pH of bacterial cell suspension); type: cell-based; conditions: 0.684% sugar added to 20% bacterial cell suspension; after 10 minutes
Description: S. mutans strain 8148 was incubated in 1,000 ml of brain heart infusion medium (manufactured by DIFCO Corporation) at 37° C. for 14 hours. Thereafter, the bacteria were collected by centrifugation at 6,000 rpm for 20 minutes. The bacteria was washed with phosphate buffered saline (PBS, pH 7.2), and suspended in the same PBS to 40% (v/v). To measure the pH, a reaction mixture (250 μl) was made of 125 μl of 40% bacterial cell suspension, 62.5 μl of 80 mM sucrose, and 62.5 μl of an aqueous solution containing various oligosaccharides (5% phosphorylated oligosaccharide sodium salt and phosphorylated oligosaccharide calcium salt). The pH of the reaction mixture was continuously measured with a pH meter (manufactured by Toa Denpa) while being incubated at 37° C.

[5] = remineralization solution + 2 ppm F, supernatant

F [F, fluorine]
lesion depth (FIG. 2) ([1]; demineralized bovine tooth pieces, remineralization solution + sample, 37° C., one week): the lesion depth was unchanged
Ca (mM) of the post-remineralization solution [1, 5]: 0.73 mM
Pi (mM) of the post-remineralization solution [1, 5]: 0.41 mM
concentration at which sufficient efficacy is exerted (remineralization) [2]: about 2 ppm

O=C[C@H](O)[C@@H](O)[C@H](O)[C@H](O)COP(=O)(O)O [glucose-6-phosphate]
remineralization effect (FIG. 12) [3]: as good as or better than that of the phosphorylated oligosaccharide sodium salt

OC[C@H]1O[C@H](OC[C@H]2OC(O)(CO)[C@@H](O)[C@@H]2O)[C@H](O)[C@@H](O)[C@@H]1O (stereo partly drawn) [palatinose, 6-O-α-D-Glucopyranosyl-D-Fructofuranose]
remineralization effect (FIG. 13) ([3]; 20% addition group): the remineralization effect as previously reported (as above) was confirmed
sample concentration exhibiting a remineralization effect (FIGS. 7A to 7C) [4]: 20%

OC[C@@H](O)[C@@H](O)[C@H](O)[C@@H](O)CO [sorbitol]
remineralization effect (FIG. 13) ([3]; 20% addition group): the remineralization effect as previously reported (as above) was confirmed

OC[C@H]1O[C@@](CO)(O[C@H]2O[C@H](CO)[C@@H](O)[C@H](O)[C@H]2O)[C@@H](O)[C@@H]1O [sucrose]
pH of the reaction liquid (S. mutans strain 8148): 4.0

OC[C@@H](O)[C@H](O)[C@@H](O)CO [xylitol]
remineralization effect (FIG. 13) ([3]; 20% addition group): the remineralization effect as previously reported (as above) was confirmed
effect of xylitol (remineralization) ([3]; statement in the background referring to the Examples): not substantially confirmed
sample concentration exhibiting a remineralization effect (FIGS. 7A to 7C) [4]: 20%

O=C[C@H](O)[C@@H](O)[C@H](O)CO [xylose]
remineralization percentage (FIG. 7B) ([3]; 37° C., 8 days): low at any concentration

chondroitin sulfate C [chondroitin sulfate C sodium salt]
remineralization effect (FIG. 12) [3]: as good as or better than that of the phosphorylated oligosaccharide sodium salt

dermatan sulfate
remineralization effect (FIG. 13) ([3]; final concentration of 0.2%): confirmed to have the remineralization effect

palatinit
sample concentration exhibiting a remineralization effect (FIGS. 7A to 7C) [4]: 20%
